# Test results taken from patent publication US20110212106A1, “HIV-1 NE[…] USES THEREOF” (priority 2010, published 2011).
# Where “and” joins values, the source holds several entries; their conditions need not be identical. Equal values may be shown once. Read-outs that look alike come from different tables or passages of the source.
# Experiments:
# gp120 binding to sCD4 = conditions: inhibition of sCD4 binding
# Protocol: Shown is mean±SD of triplicates.
# The ability of mAbs to inhibit binding of sCD4 to gp120 or gp140 was evaluated by ELISA. Serial dilutions of mAbs were pre-incubated with gp120 (or gp140) and added to plates pre-coated with sCD4. After 1 h plates were washed and incubated with sheep polyclonal antibody D7324 (Aalto Bio-Reagents) followed by washing, incubation with AP-conjugated rabbit anti-sheep IgG antibody (Abcam, Cambridge, UK), extensive washing and detection using p-NPP (Sigma) as substrate.
# [1] = system: HIV-1 pseudoviruses in TZM-bl cells; conditions: for IC50: Table 7, TZMbl
# [2] = system: HIV-1 pseudoviruses in HOS-CD4-CCR5 cells; conditions: for IC50: Table 7, HOS
# Protocol: To measure the neutralization activity of the isolated mAbs, luciferase-encoding virions pseudotyped with the desired HIV-1 Env proteins were used in a single-cycle infectivity assay, as previously described (Gorny M K, et al. (2002) J Virol 76: 9035-9045). Briefly, appropriate dilutions of the virion-containing culture supernatants were pre-incubated at 37° C. for 1 h with mAbs at various concentrations. The virus-mAb mixtures were added to HOS-CD4-CCR5 cells and incubated for 3 days at 37° C. A similar protocol was used for supernatants screening using TZM-bl cells (Li M, et al. (2006) J Virol 80: 11776-11790). The cells were then lysed with Britelite reagent (Perkin-Elmer) and the relative light units in the cell lysates were determined on a luminometer microplate reader (Veritas, Turner Biosystems). The 50% inhibitory dose (IC50) was defined as the sample concentration at which relative luminescence units were reduced 50% compared to virus control wells.
# The neutralizing activity of the mAbs was measured using 20 pseudotyped HIV-1 primary isolate envs characterized by different sensitivity to neutralization (Li M, et al. (2005) J Virol 79: 10108-10125; Li M, et al. (2006) J Virol 80: 11776-11790). The mAbs were tested at a fixed concentration (100 μg/ml) in the luciferase based neutralization assay using HOS-CD4.R5 as target cells.
# [3] = system: primary replication competent HIV-1 isolates
substance,measurement,setting,value
"HJ16: human mAb from clade C donor, CD4 binding site proximal epitope; VH SEQ ID NO: 13, VL SEQ ID NO: 14",plateau of heterologous inhibition in cross-competition of HJ16 and b12,gp120; binding to immobilized gp120,approximately 80%
same,Cross-competition with: 2G12,gp120; inhibition of biotinylated mAb 2G12 binding to immobilized gp120,"− (−, <50% inhibition)"
same,Cross-competition with: HGA9,gp120; inhibition of biotinylated mAb HGA9 binding to immobilized gp120,"− (−, <50% inhibition)"
same,Cross-competition with: HJ16,gp120; inhibition of biotinylated mAb HJ16 binding to immobilized gp120,"+ (+,90-100% inhibition)"
same,Cross-competition with: sCD4,gp120 binding to sCD4,"+ (+,90-100% inhibition)"
same,Percentage of HIV-1 isolates neutralized,[1]; All (92),36%
same,Neutralization TZM-bl (number of isolates neutralized),"[1]; TZM-bl based assay, isolates neutralized/isolates tested",33/92
same,Percentage of HIV-1 isolates neutralized,[1]; Tier 1 (10),10%
same,Percentage of HIV-1 isolates neutralized,"[1]; Tier 1 + Tier 2, Clade A (8)",25%
same,Percentage of HIV-1 isolates neutralized,"[1]; Tier 1 + Tier 2, Clade AD (1)",100%
same,Percentage of HIV-1 isolates neutralized,"[1]; Tier 1 + Tier 2, Clade AG (16)",50%
same,Percentage of HIV-1 isolates neutralized,"[1]; Tier 1 + Tier 2, Clade B (29)",34%
same,Percentage of HIV-1 isolates neutralized,"[1]; Tier 1 + Tier 2, Clade BC (11)",45%
same,Percentage of HIV-1 isolates neutralized,"[1]; Tier 1 + Tier 2, Clade C (26)",27%
same,Percentage of HIV-1 isolates neutralized,"[1]; Tier 1 + Tier 2, Clade G (1)",0%
same,Percentage of HIV-1 isolates neutralized,[1]; Tier 2 (82),39%
same,Percentage of HIV-1 isolates neutralized,"[1]; Tier 2, Clade A (5)",20%
same,Percentage of HIV-1 isolates neutralized,"[1]; Tier 2, Clade AD (1)",100%
same,Percentage of HIV-1 isolates neutralized,"[1]; Tier 2, Clade AG (16)",50%
same,Percentage of HIV-1 isolates neutralized,"[1]; Tier 2, Clade B (24)",42%
same,Percentage of HIV-1 isolates neutralized,"[1]; Tier 2, Clade BC (11)",45%
same,Percentage of HIV-1 isolates neutralized,"[1]; Tier 2, Clade C (24)",29%
same,Percentage of HIV-1 isolates neutralized,"[1]; Tier 2, Clade G (1)",0%
same,Tier-2 isolates neutralized by HJ16 that were not neutralized by b12,[1]; of 32 neutralized,22/32
same,Tier-1 viruses neutralized,[1]; panel of 10 Tier-1 isolates,1 out of 10 and 1/10
same,Tier-2 pseudoviruses neutralized,[1]; panel of 82 Tier-2 isolates,32/82
same,Neutralization HOS (number of isolates neutralized),"[2]; HOS-based assay, isolates neutralized/isolates tested",10/20
same,pseudoviruses neutralized out of the 20 pseudoviruses,[2]; mAb at fixed concentration 100 μg/ml,10
enfuvirtide,IC50,"[3]; 92BR025, clade C",< 16 nM
same,IC90,"[3]; 92BR025, clade C",29 nM
same,IC50,"[3]; 92RW009, clade A",< 16 nM
same,IC90,"[3]; 92RW009, clade A",44 nM
same,IC50,"[3]; 92UG024, clade D",16 nM
same,IC90,"[3]; 92UG024, clade D",48 nM
same,IC50,"[3]; J213, clade B",35 nM
same,IC90,"[3]; J213, clade B",192 nM
same,IC50,"[3]; MN(P), clade B",39 nM
same,IC90,"[3]; MN(P), clade B",63 nM
same,IC50,"[3]; QH0692, clade B",78 nM
same,IC90,"[3]; QH0692, clade B",207 nM
same,IC50,"[3]; VI 191, clade A",32 nM
same,IC90,"[3]; VI 191, clade A",56 nM
same,IC50,"[1]; 96ZM651.2, clade C",8.9 nM
same,IC50,"[1]; 263-8, clade AG",< 2.23 nM
same,IC50,"[1]; AC10.0.29, clade B",6.68 nM
same,IC50,"[1]; BaL.26, clade B",6.68 nM
same,IC50,"[1]; CAP210.2.00.E8, clade C",13.4 nM
same,IC50,"[1]; CH064.20, clade BC",< 2.23 nM
same,IC50,"[1]; CH110.2, clade BC",< 2.23 nM
same,IC50,"[1]; CH181.12, clade BC",< 2.23 nM
same,IC50,"[1]; Du151.2, clade C",< 2.23 nM
same,IC50,"[1]; Q168.a2, clade AD",8.9 nM
same,IC50,"[1]; Q461.e2, clade A",6.68 nM
same,IC50,"[1]; Q769.d22, clade A",20 nM
same,IC50,"[1]; RHPA4259.7, clade B",8.9 nM
same,IC50,"[1]; SF162, clade B",20 nM
same,IC50,"[1]; SS1196.1, clade B",4.45 nM
same,IC50,"[1]; T257-31, clade AG",< 2.23 nM
same,IC50,"[1]; ZM53M.PB12, clade C",< 2.23 nM
same,IC50,"[1]; ZM214M.PL15, clade C",17.8 nM
same,IC50,"[2]; 96ZM651.2, clade C",0.6 nM
same,IC50,"[2]; 263-8, clade AG",0.04 nM
same,IC50,"[2]; AC10.0.29, clade B",1.2 nM
same,IC50,"[2]; BaL.26, clade B",1.4 nM
same,IC50,"[2]; CAP210.2.00.E8, clade C",6 nM
same,IC50,"[2]; CH064.20, clade BC",0.7 nM
same,IC50,"[2]; CH110.2, clade BC",0.335 nM
same,IC50,"[2]; CH181.12, clade BC",1.8 nM
same,IC50,"[2]; Du151.2, clade C",0.6 nM
same,IC50,"[2]; JR-FL, clade B",1.9 nM
same,IC50,"[2]; MW965.26, clade C",0.6 nM
same,IC50,"[2]; Q168.a2, clade AD",5.7 nM
same,IC50,"[2]; Q461.e2, clade A",1.6 nM
same,IC50,"[2]; Q769.d22, clade A",1.7 nM
same,IC50,"[2]; RHPA4259.7, clade B",1.9 nM
same,IC50,"[2]; SF162, clade B",6.8 nM
same,IC50,"[2]; SS1196.1, clade B",0.9 nM
same,IC50,"[2]; T257-31, clade AG",2.76 nM
same,IC50,"[2]; ZM53M.PB12, clade C",6.1 nM
same,IC50,"[2]; ZM214M.PL15, clade C",4.42 nM
